The record followed here is patent publication US10858406B2 (priority 2014, dated 2020).

Structures are written as SMILES.

The subject of the assay is potassium ion channel current of the DRG neurons. In kind it is cell-based, SD rats. The conditions noted are these: 5 mM.

Turning to `Nc1ccncc1` [4AP, 4-aminopyridine], the Current inhibition rate is on record as 0.338 and the “Current recorded after loading” value turned out to be 0.9766 nA.
